Some test systems named below: KM12 colon; SK-OV-3 ovarian; ACHN renal; SN12C renal; CAKI-1 renal; NCI-H23 lung; RPMI-8226 leukemia; EKVX NSCLC; HL-60(TB) leukemia; IGROV1 ovarian; SW-620 colon; NCI-H226 lung.
Test in all cases: inhibition of tumour cell growth, NCI panel, 48 h

Values joined by “and” are separate entries in the source; they are usually repeats but may differ in a detail not shown here. Equal entries are not always repeated.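 Step 1: Grow cells in 96-well plates. Step 2: Expose to compound for 48 hours at 5 concentrations. Step 3: Interpolate endpoints linearly; if unreached, use highest concentration. GI50 = concentration required for 50% inhibition of growth. TGI: total growth inhibition.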

On to `CCCCC(=O)Nc1ccc2c(C)cc(-c3ccc(-c4cc(-c5ccc(C)cc5)cc(-c5ccc(-c6cc(C)c7ccc(NC(=O)CCCC)nc7n6)cc5)n4)cc3)nc2n1`, for which the TGI in the assay with KM12 colon, with SK-OV-3 ovarian, in the assay on ACHN renal, in the assay on SN12C renal, in the assay with CAKI-1 renal and in the assay on NCI-H23 lung was more than 100 µM each time. Besides, the TGI with RPMI-8226 leukemia and in the assay with EKVX NSCLC was more than 100 µM throughout.
For the molecule `O=c1ccnc2ccc3n[nH][nH]c3c12`, the TGI with KM12 colon, in the assay on SK-OV-3 ovarian, in the assay with ACHN renal, in the assay on HL-60(TB) leukemia, in the assay on IGROV1 ovarian and in the assay with SN12C renal was more than 100 µM throughout. Besides, the TGI in the assay on CAKI-1 renal, in the assay with NCI-H23 lung, in the assay on RPMI-8226 leukemia, in the assay on EKVX NSCLC and with SW-620 colon was more than 100 µM in each case.
For `O=C1CCCc2ccc3c(c21)CC1(Cc2ccccc2C1)C3`, the TGI in the assay with KM12 colon was more than 100 µM; in the assay on SK-OV-3 ovarian, more than 100 µM; with NCI-H226 lung, 67.3 µM; in the assay on ACHN renal it was 68.9 µM; in the assay with IGROV1 ovarian, more than 100 µM; in the assay with SN12C renal it was more than 100 µM. The TGI was more than 100 µM with NCI-H23 lung, 48.1 µM in the assay with RPMI-8226 leukemia and more than 100 µM in the assay with EKVX NSCLC.
In the case of `COc1ccc(C(=O)/C=C/c2ccc(OCC(=N)N)cc2)cc1`, the TGI in the assay with KM12 colon was 25.8 µM; in the assay on SK-OV-3 ovarian, 25.5 µM; with NCI-H226 lung it was 34.1 µM; with ACHN renal it was 31.9 µM; with IGROV1 ovarian, 40.8 µM; in the assay on SN12C renal it was 26.7 µM. Moreover, the TGI in the assay on NCI-H23 lung was 43.3 µM; in the assay with EKVX NSCLC it was 30.8 µM; in the assay on SW-620 colon it was 14.7 µM.
As for `COc1cccc2c1C(=O)c1c(O)c3c(c(O)c1C2=O)C[C@@](O)(C(=O)CO)CC3OC1CC(NCCCC(OC(C)=O)OC(C)=O)C(O)C(C)O1` (stereo not given in full), the GI50 with KM12 colon was less than 0.0001 µM; with SK-OV-3 ovarian it was 0.000298 µM; in the assay with IGROV1 ovarian, 0.000754 µM; in the assay on SN12C renal, less than 0.0001 µM; with NCI-H23 lung, less than 0.0001 µM; with RPMI-8226 leukemia it was less than 0.0001 µM. Also, the GI50 in the assay on EKVX NSCLC was 0.000305 µM; with SW-620 colon it was less than 0.0001 µM. For the same molecule, the TGI with KM12 colon is 0.000187 µM; with SK-OV-3 ovarian, more than 1 µM; in the assay with NCI-H226 lung it was 0.00579 µM; in the assay on HL-60(TB) leukemia, 0.0058 µM; in the assay on IGROV1 ovarian, more than 1 µM; in the assay on SN12C renal, more than 1 µM. The TGI was 0.000403 µM in the assay on RPMI-8226 leukemia; 0.00618 µM and 0.00119 µM with EKVX NSCLC; more than 1 µM in the assay on SW-620 colon.
For `COc1cc2c[n+](C)c3c4cc(OC)c(OC)cc4ccc3c2cc1OC`, the GI50 in the assay on KM12 colon was > 100 µM and 33.3 µM; in the assay on SN12C renal, 30.4 µM and 3.98 µM; in the assay with NCI-H23 lung it was 40.8 µM and 19.5 µM. Also, the TGI in the assay on KM12 colon was more than 100 µM; in the assay with SK-OV-3 ovarian, more than 100 µM; in the assay on NCI-H226 lung, more than 100 µM; with ACHN renal, more than 100 µM; in the assay with IGROV1 ovarian, 97.7 µM; in the assay with SN12C renal, more than 100 µM. Further, the TGI in the assay with CAKI-1 renal is more than 100 µM; in the assay with NCI-H23 lung it was > 100 µM and 77 µM; with RPMI-8226 leukemia, more than 100 µM; in the assay with EKVX NSCLC, more than 100 µM; in the assay on SW-620 colon it was more than 100 µM.
Consider `NC(Cc1ccc(B(O)O)cc1)C(=O)NC(CO)CO` (stereo not given), for which the TGI in the assay on KM12 colon, in the assay with SK-OV-3 ovarian, in the assay with NCI-H226 lung, in the assay on ACHN renal, in the assay on IGROV1 ovarian and in the assay on SN12C renal was more than 100 µM in each case. For the same molecule, the TGI with CAKI-1 renal, in the assay with NCI-H23 lung, with RPMI-8226 leukemia, in the assay on EKVX NSCLC and in the assay with SW-620 colon was more than 100 µM throughout.
Regarding `[N-]=[N+]=CC(=O)CCC(=O)N(c1ccccc1)c1ccccc1`, the TGI with KM12 colon, with SK-OV-3 ovarian, in the assay with NCI-H226 lung, in the assay on ACHN renal, in the assay with HL-60(TB) leukemia and in the assay with IGROV1 ovarian was more than 10 µM throughout. Besides, the TGI in the assay with SN12C renal, in the assay with NCI-H23 lung, in the assay with EKVX NSCLC and in the assay on SW-620 colon was more than 10 µM throughout.
For the molecule `CCCNC(=O)N1CC(CN2CCN(c3ccccc3)CC2)O/C1=N/C(=O)Nc1ccccc1` (stereo not given), the TGI in the assay on KM12 colon, in the assay with SK-OV-3 ovarian, in the assay on ACHN renal, with HL-60(TB) leukemia, in the assay on IGROV1 ovarian and in the assay on SN12C renal was more than 100 µM in each case. Also, the TGI in the assay with CAKI-1 renal, in the assay with NCI-H23 lung, in the assay on RPMI-8226 leukemia, with EKVX NSCLC and in the assay with SW-620 colon was more than 100 µM throughout.
For `CC[C@@]1(CCC(=O)NCCc2c[nH]c3ccccc23)CCC(=O)N2CCc3c([nH]c4ccccc34)[C@H]21`, the TGI is 19.4 µM in the assay on KM12 colon; more than 100 µM in the assay on SK-OV-3 ovarian; 77.8 µM in the assay with NCI-H226 lung; more than 100 µM with ACHN renal; 30 µM in the assay on IGROV1 ovarian; more than 100 µM with SN12C renal. Also, the TGI in the assay on CAKI-1 renal was more than 100 µM; in the assay with NCI-H23 lung, more than 100 µM; in the assay on RPMI-8226 leukemia it was 9.59 µM; in the assay on EKVX NSCLC, more than 100 µM; with SW-620 colon, more than 100 µM.
`CCO/C(Cc1ccc(Cl)cc1)=N/NC(N)=S`: the TGI in the assay on KM12 colon, with SK-OV-3 ovarian, in the assay on NCI-H226 lung, in the assay on ACHN renal, with IGROV1 ovarian and with SN12C renal was more than 100 µM each time. Further, the TGI with CAKI-1 renal, in the assay with NCI-H23 lung, in the assay on EKVX NSCLC and in the assay with SW-620 colon was more than 100 µM in each case.
Regarding `CCOC(=O)c1cc(C2CCN(Cc3ccccc3)C2=S)c(C(=O)C=[N+]=[N-])[nH]1` (stereo not given), the TGI with KM12 colon is more than 100 µM; in the assay with SK-OV-3 ovarian, more than 100 µM; in the assay with ACHN renal, more than 100 µM; in the assay with IGROV1 ovarian it was more than 100 µM; with CAKI-1 renal, more than 100 µM; with NCI-H23 lung, 53.4 µM. The TGI is more than 100 µM in the assay on RPMI-8226 leukemia, 89.6 µM with EKVX NSCLC and more than 100 µM with SW-620 colon.
